The target of assay [1] is Human RET protein (RET kinase) (Homo sapiens (Human), UniProt P07949). As to the kind of experiment: RET kinase activity, HTRF KinEASE-TK TR-FRET assay. The conditions noted are these: inhibition of RET kinase; 9 concentrations 3200 nM~0.008 nM, 2% DMSO. The class given is biochemical. On the procedure: Test Example 1. Determination of the Activity of the Compound of the Present Disclosure on RET Kinase
(§1) In this method, HTRF®KinEASE-TK Tyrosine Kinase Kit (Cat. No. 62TK0PEB) of Cisbio was used to determine the degree of phosphorylation of biotinylated polypeptide substrates by time-resolved fluorescence energy transfer (TR-FRET). Human RET protein (RET kinase) was purchased from Carna bioscience (Japan, Cat. No. 08-159-5 μg).
(§2) The experimental steps are as follows: • (1) The test compound (the compound of the present disclosure, and compound 164 in WO2018017983A1 as a control) was dissolved in 100% DMSO to a final concentration of 10 mM. • (2) 4 μL of the test compound solution prepared in step (1) was dissolved with 46 μL of 100% DMSO, and the solution obtained in this step was numbered as No. 2. • (3) No. 2 solution was subjected to subsequent gradient dilution with a dilution factor of 5 times (i.e. 20 μL of 100% DMSO was added to 5 μL of the compound), a total of 9 gradients, numbered 3 to 11.
Note: No. 2 was not used for the dilution in step (4).
(§3) (Unless otherwise specified, the following steps need to be carried out on ice) • (4) The buffer provided in the kit (Cisbio, Cat. No. 62TK0PEB) was used to continuously serially dilute the solutions numbered from 3 to 11 with a dilution factor of 20 times (that is, adding 19 μL of buffer to the solutions numbered from 3 to 11). At this time, the final concentration range of the test compound in the system No. 3 to 11 was 3200 nM˜0.008 nM (9 gradients), and the final concentration of DMSO was 2%. • (5) 9 compound solutions of gradient concentration in step (4) were added into a 384-well plate in order according to their concentration at 4 μL per well, and two duplicate wells were set. • (6) 2 μL of human RET protein was added to each well and incubated on ice for 10 minutes. • (7) 2 μL of ATP (Sigma #A7699) and 2 μL of biotinylated polypeptide substrate (Cisbio, Cat. No. 62TK0PEB) were added to each well to start the phosphorylation reaction, and incubated at 37° C. for half an hour. • (8) 5 μL of anti-phosphotyrosine antibody coupled with europium compound (provided in the kit, Cat. No. 62TK0PEB) and 5 μL of streptavidin coupled with modified allophycocyanin XL665 (Cisbio, Cat. No. 62TK0PEB) were added to each well. • (9) The plate was continued to incubate for 1 hour at room temperature. After the incubation, the TF-FRET mode of the microplate reader (BMG Labtech, model: FLUOStar Omega) was adopted to measure the fluorescence intensity at an excitation wavelength of 304 nm and emission wavelengths of 615 nm and […] in each well. The ratio would be calculated automatically. • (10) By comparing the fluorescence intensity ratio in the control group, the inhibition rate of the compound at each concentration was calculated, and GraphPad Prism 5 was used to perform curve fitting with logarithmic concentration-inhibition rate to calculate the IC50 value of the compound.
(In general: TR-FRET usually uses a lanthanide donor and a delayed reading to cut background.)

The target in a further assay is KDR kinase (Homo sapiens (Human), UniProt P35968). As to the kind of experiment: KDR control kinase activity, HTRF KinEASE-TK TR-FRET assay. The format is biochemical. To be noted: inhibition of KDR kinase; 16000 nM~0.04 nM, 2% DMSO. On the procedure: as §1, §2, §3
Sequence of KDR kinase (P35968 20-1356): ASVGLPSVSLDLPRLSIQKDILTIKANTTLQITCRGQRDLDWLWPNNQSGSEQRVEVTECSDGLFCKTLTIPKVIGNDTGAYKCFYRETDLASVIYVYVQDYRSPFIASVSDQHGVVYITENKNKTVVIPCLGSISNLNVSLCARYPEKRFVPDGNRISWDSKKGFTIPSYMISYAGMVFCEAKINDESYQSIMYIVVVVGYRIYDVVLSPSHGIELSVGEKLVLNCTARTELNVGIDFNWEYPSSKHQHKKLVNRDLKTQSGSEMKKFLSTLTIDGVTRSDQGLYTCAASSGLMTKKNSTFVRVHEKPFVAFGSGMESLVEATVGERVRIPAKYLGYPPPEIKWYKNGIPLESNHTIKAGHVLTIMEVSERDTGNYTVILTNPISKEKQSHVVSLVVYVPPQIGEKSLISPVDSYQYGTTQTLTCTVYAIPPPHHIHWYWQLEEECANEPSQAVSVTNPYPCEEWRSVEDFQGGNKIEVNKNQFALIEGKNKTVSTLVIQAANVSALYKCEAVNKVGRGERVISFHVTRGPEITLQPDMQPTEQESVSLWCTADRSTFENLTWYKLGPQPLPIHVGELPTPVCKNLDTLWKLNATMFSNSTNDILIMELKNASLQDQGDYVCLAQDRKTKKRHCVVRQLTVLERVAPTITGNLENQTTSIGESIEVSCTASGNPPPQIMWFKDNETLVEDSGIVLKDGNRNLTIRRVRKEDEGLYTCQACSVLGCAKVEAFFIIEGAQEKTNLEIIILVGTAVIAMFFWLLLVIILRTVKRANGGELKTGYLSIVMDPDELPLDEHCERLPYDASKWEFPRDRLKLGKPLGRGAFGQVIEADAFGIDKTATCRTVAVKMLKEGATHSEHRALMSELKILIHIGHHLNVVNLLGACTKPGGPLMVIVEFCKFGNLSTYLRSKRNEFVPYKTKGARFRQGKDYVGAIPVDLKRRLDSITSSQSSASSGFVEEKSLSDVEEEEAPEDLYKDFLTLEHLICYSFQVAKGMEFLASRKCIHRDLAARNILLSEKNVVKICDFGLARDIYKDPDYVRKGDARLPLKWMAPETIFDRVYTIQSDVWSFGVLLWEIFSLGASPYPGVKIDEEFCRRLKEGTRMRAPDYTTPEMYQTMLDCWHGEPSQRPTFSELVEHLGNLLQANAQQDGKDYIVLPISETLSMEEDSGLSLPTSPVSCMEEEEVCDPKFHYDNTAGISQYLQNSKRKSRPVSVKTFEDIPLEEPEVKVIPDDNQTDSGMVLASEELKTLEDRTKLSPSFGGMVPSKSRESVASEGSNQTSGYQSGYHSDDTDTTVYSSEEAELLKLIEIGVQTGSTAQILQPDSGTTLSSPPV
The selected control kinase is another receptor tyrosine kinase, KDR, with similar structure to RET kinase, purchased from Carna bioscience (Japan, Cat. No. 08-191-5 μg). The step of gradient dilution was the same as that of RET kinase, and the final concentration range of the test compound in the reaction system was 16000 nM˜0.04 nM (No. 2-10 solutions were used for the gradient dilution in step 4). Other reaction conditions were the same as above, and the final concentration of DMSO was 2%. The calculation method for the IC50 value of KDR kinase inhibition by the test compound was the same as the calculation method for the IC50 value of RET kinase inhibition.

Molecules are shown by their SMILES.

This passage reports IC50 results from US12234222B2, “Piperazine amide derivative, preparation method therefor, and use thereof in medicine” (ZHEJIANG HISUN PHARMACEUTICAL CO., LTD., priority 2019, dated 2025).

For orientation: IC50 means the concentration needed to halve the response being measured. High values mean lower potency, low ones higher potency.

Sequence of Human RET protein (RET kinase) (P07949 29-1114): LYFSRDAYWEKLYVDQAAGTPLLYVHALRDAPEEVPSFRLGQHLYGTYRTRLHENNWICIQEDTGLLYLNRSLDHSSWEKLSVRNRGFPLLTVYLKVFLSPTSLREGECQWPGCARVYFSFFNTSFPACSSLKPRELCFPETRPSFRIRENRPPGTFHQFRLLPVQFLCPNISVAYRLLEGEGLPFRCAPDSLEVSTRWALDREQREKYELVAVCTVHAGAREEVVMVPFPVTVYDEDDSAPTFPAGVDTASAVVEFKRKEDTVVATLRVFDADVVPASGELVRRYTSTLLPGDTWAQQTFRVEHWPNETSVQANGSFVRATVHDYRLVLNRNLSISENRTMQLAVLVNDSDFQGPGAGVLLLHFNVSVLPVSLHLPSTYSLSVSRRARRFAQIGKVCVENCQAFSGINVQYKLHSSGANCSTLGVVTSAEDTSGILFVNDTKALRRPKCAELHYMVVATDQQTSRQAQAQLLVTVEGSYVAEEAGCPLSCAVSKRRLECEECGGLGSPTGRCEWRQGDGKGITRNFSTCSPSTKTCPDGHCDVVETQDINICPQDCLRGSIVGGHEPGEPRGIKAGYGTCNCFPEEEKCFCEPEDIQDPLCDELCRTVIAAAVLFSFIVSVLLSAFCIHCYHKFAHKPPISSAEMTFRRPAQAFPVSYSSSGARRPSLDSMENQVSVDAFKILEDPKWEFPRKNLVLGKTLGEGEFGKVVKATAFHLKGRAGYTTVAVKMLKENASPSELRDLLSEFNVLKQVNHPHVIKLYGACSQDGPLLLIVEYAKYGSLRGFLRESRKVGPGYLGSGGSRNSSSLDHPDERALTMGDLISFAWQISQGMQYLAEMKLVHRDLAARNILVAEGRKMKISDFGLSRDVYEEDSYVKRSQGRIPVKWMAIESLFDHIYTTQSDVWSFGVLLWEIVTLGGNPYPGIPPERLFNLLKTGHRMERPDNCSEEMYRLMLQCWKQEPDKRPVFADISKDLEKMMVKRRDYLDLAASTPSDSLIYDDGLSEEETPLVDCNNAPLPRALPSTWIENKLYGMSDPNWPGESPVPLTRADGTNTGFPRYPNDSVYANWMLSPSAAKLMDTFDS

With `Cc1cc(Nc2cc(C)[nH]n2)nc(N2C3CCC2CN(C(=O)c2ccc(-n4cc(F)cn4)nn2)C3)c1` [Compound I-30, (6-(4-fluoro-1H-pyrazol-1-yl)pyridazin-3-yl)(8-(4-methyl-6-((5-methyl-1H-pyrazol-3-yl)amino)pyridin-2-yl)-3,8-diazabicyclo[3.2.1]octane-3-yl)methanone], the values for the IC50 (in assay [1]; on KDR kinase) were 1.8 nM and 95 nM, respectively.
